Measured values: US12419952B2, “Saponin conjugate and vaccine or pharmaceutical composition comprising the same” (priority 2019, dated 2025)

Key:
[1] = test system: memory T cells (low CD62L, high CD44); experiment: Flow cytometric analysis of memory T cells (CD62L low, CD44 high) in splenocytes of vaccinated mice; type: in vivo, C57BL/6 mice; conditions: one week post-third dose
Procedure: C57BL/6 mice were obtained from NLAC Taiwan. Mice between 4 and 8 weeks of age were vaccinated with 100 μL via the subcutaneous (SC) route and one dose per week for three weeks. Mice was sacrificed one week after the third vaccination, serum and splenocytes were harvested.
Spleen tissue was isolated from mice and processed into single cell suspensions using PP micro centrifuge sample pestle. Splenocytes were seeding on 6 well plate at 2×10^7/2 mL, cultivation for 2 h in a CO2 incubator. After 2 h, stimulate with or without E7-peptide for 2 hours at 37° C., then treat cell with protein transport inhibitor Monensin (Invitrogen, Cat. no. 00-4505-51) and Brefeldin (Invitrogen, Cat. no. 00-4506-51) for 4 hours at 37° C. Afterward, cells were harvest then washed twice with PBS and then stained for surface CD3 (BioLegend, Cat. no. 100222), CD4 (BioLegend, Cat. no. 100540), CD8 (Invitrogen, Cat. no. 11-0081-86), CD44 (BioLegend, Cat. no. 103008), CD62L (BioLegend, Cat. no. 104412) for 30 minutes at 4° C. After washing, cells were fixed for 30 minutes at room temperature using IC fixation buffer (Invitrogen, Cat. no. 00-8222-49), then cells were washed in permeabilization buffer (Invitrogen, Cat. no. 00-8333-56) and stained with IFNγ antibody (Invitrogen, Cat. no. 48-7311-82), IL-2 antibody (Invitrogen, Cat. no. 25-7021-82) and TNFα antibody (Invitrogen, Cat. no. 48-7321-82). One point five million cells events were acquired on the Backman Coulter Gallions. Flow data were analyzed using Kaluza software (ver. 1.2). Populations were first gated on viable mononuclear cell using forward and side scatter, then gated on CD3^+/CD4^+ or CD3^+/CD8^+ T cells. Next, sub-gated CD62L^−/CD44^+ memory T cells. Subsequently, sub-gated on either CD4^+/IFNγ, CD8^+/IFNγ^+, CD4^+/IL-2^+, CD8^+/IL-2^+, CD4/TNFα^+ and CD8^+/TNFα^+ double-positive cells.
Two adhesion molecules associated with differentiating naive and activated/memory T cells are CD62L (L-selectin) and CD44 (H-CAM). […] Flow-cytometric analysis (individual mice) of T-cells as frequency of viable CD8^+ or CD4^+ splenocytes expressing IFN-γ, TNF-α, or IL-2. Cytokine positivity was determined.

[2] = test system: E.G7-OVA (OVA-expressing EL4 lymphoma) tumors; experiment: Tumor challenge: OVA vaccine with adjuvant in E.G7-OVA tumor bearing mice; type: in vivo, C57BL/6 mice; conditions: Days 7, 14; for tumor growth suppression compared with the control group (PBS): 100 μg OVA with or without 50 μg adjuvant
Procedure: Female C57BL/6 mice 6-8 weeks of age obtained from NLAC Taiwan. Mice were injected s.c. with 200 μL of 1.5*10^6 E. G7-OVA (OVA-expressing EL4 lymphoma) cells in PBS. Tumor volumes were measured at regular intervals using a caliper and calculated by the following formula: tumor volume (mm^3)=(long diameter)*(short diameter)^2*0.52. When the average tumor volume reached […] (day 7), 100 μL of 100 μg OVA in PBS with or without 50 μg compound 56, alum, Qs-21 and GPI0100 was injected s.c. around the tumor. PBS (200 μL) was used as a control.
A mouse-vaccination model was applied with an antigen OVA to evaluate anti-tumor efficacy. […] The evaluation of compound 56, and positive control groups (alum, Qs-21 and GPI-0100) anti-tumor efficacy were analyzed by caliper.

[3] = test system: PEK antigen (PE-E7-K3)-specific cytokine-secreting splenocytes; experiment: ELISpot of IFNγ and IL-2 production by splenocytes of mice vaccinated with PEK antigen plus saponin adjuvant; type: in vivo, C57BL/6 mice; conditions: 50 μg saponin + PEK 100 μg, s.c.; splenocytes one week after third dose
SARS-CoV-2 spike protein = experiment: ELISA of serum SARS-CoV-2-specific IgG after vaccination with spike protein and adjuvant; type: in vivo, C57BL/6 mice
PR8 virus = experiment: Influenza challenge: NP peptide vaccine with compound 56, then live PR8 virus infection; type: in vivo, C57BL/6 mice; conditions: NPI/II plus compound 56 (50 μg s.c. or 30 μg i.n.); two vaccinations; 110 PFU PR8
Procedure: Female C57BL/6 mice 6-8 weeks of age were immunized through either s.c. injection with 100p of vaccines or the intranasal route with 30 μl of vaccines. All vaccine liquids were freshly prepared and diluted with 0.5% Tween 20 PBS. Vaccines used for the subcutaneous injection contained immunogens NP366-374/NP311-325 peptides, alone or combined with compound 56 ([…]). Vaccines used for the i.n. route contained immunogens alone or with compound 56 (30 μg). After two times vaccination, mice were infected with 110 plaque-forming units (PFU) of live PR8 virus by intronasal.
A mouse-vaccination model was applied with an antigen […] to evaluate anti-influenza efficacy. Five mice per group were immunized two times with compound 56 and NPI/II. After two times vaccination, mice were infected with 110 plaque-forming units (PFU) of live PR8 virus by intronasal.

Female BALB/c mice = experiment: Acute toxicity with increased dose of saponin (survival, weight change, spleen and hepato somatic index); type: in vivo
Source text: FIG. 8 (A) The percentage of median weight change of mice in 5 days. The values are presented as means±S.E.M. (n=5). (B) Hepato somatic index and (C) Spleen somatic index. The values are presented as means±S.E.M. (n=5). The percentage of median weight change of mice which was received increased dose of saponin adjuvant 56 was all less than 5%. The spleen somatic index and hepato somatic index in all experimental group were no change with compare to control group.
Acute toxicity was examined with increased dose of saponin 56 form 100 μg to 1000 μg. The result was presented as the number of surviving animal per group of 5 mice (Female BALB/c mice, 9 weeks) in 7 days. […] (FIG. 8)
The results represent in FIG. 8. […] The spleen somatic index and hepato somatic index in all experimental group were no change with compare to control group.

Compound | cytokine positive CD4+ T-cells [1] | frequency of CD8+ T-cells positive for IFN-γ or TNF-α as compared to mice vaccinated with GPI-0100 [1] | tumor growth suppression compared with the control group (PBS) [2] | inducing IL-2 (ELISpot) [3] | secretion of cytokines IFNγ (ELISpot) compared with GPI0100 [3] | other results
CC1O[C@@H](OC(=O)[C@]23CCC(C)(C)CC2C2=CCC4C5(C)CC[C@H](O[C@@H]6OC(C(=O)NCCCCCCCCc7ccc(N8CCOCC8)cc7)[C@@H](O)C(O)C6O)C(C)(C=O)C5CCC4(C)[C@]2(C)CC3O)C(O[C@@H]2OC(C)[C@H](O[C@@H]3OC[C@@H](O)C(O)C3O)C(O)C2O)C(O)[C@H]1O (stereo partly drawn) [Compound 62, 3-O—(N-(8-(4-morpholinophen-1-yl)octyl)-β-D-glucopyranosyluronamide)-28-O-(β-D-xylopyranosyl-(1→4)-α-L-rhamnopyranosyl-(1-2)-β-D-fucopyranosyl) quillaic ester] | no cytokine positive CD4^+ T-cells were detected | higher frequency |  |  |  | 
Alum [reference compound] |  |  | slight tumor growth suppression at first |  |  | 
Qs-21 [reference compound] |  |  | significant tumor growth suppression effect |  |  | 
OVA: antigen OVA used in the tumor vaccination model |  |  | slight tumor growth suppression at first |  |  | 
CC1O[C@@H](OC(=O)[C@]23CCC(C)(C)CC2C2=CCC4C5(C)CC[C@H](O[C@@H]6OC(C(=O)NCCCCCCCCc7ccc(Oc8ccccc8)cc7)[C@@H](O)C(O)C6O)C(C)(C=O)C5CCC4(C)[C@]2(C)CC3O)C(O[C@@H]2OC(C)[C@H](O[C@@H]3OC[C@@H](O)C(O)C3O)C(O[C@@H]3OC(CO)[C@@H](O)C(O)C3O)C2O)C(O)[C@H]1O (stereo partly drawn) [Compound 79, 3-O—(N-(8-(4-Phenoxyhenyl)octyl)-β-D-glucopyranosyluronamide)-28-O-(β-D-glucopyranosyl-(1→3)-(β-D-xylopyranosyl-(1-4))-α-L-rhamnopyranosyl-(1→2)-β-D-fucopyranosyl) quillaic ester] | no cytokine positive CD4^+ T-cells were detected | higher frequency |  | moderate | three to four times more | 
CC1O[C@@H](OC(=O)[C@]23CCC(C)(C)CC2C2=CCC4C5(C)CC[C@H](O[C@@H]6OC(C(=O)NCCCCCCCCc7ccc(Oc8ccccc8)cc7)[C@@H](O)C(O)C6O)C(C)(C=O)C5CCC4(C)C2(C)CC3O)C(O[C@@H]2OC(C)[C@H](O[C@@H]3OC[C@@H](O)C(O)C3O)C(O)C2O)C(O)[C@H]1O (stereo partly drawn) [Compound 56, 3-O—(N-(8-(4-Phenoxyhenyl)octyl)-β-D-glucopyranosyluronamide)-28-O-(β-D-xylopyranosyl-(1→4)-α-L-rhamnopyranosyl-(1→2)-β-D-fucopyranosyl) quillaic ester] | no cytokine positive CD4^+ T-cells were detected | higher frequency | significant tumor growth suppression effect | moderate | three to four times more | increase of antibody titer (SARS-CoV-2 spike protein; SARS-CoV-2 (2 μg) + Compound 56 (50 μg) vs SARS-CoV-2 (10 μg) + Alum (10 μg), only 20% of antigen): 1000 fold; level of SARS-CoV-2-specific IgG antibody production (SARS-CoV-2 spike protein; SARS-CoV-2 (2 μg) + Compound 56 (50 μg), s.c.): highest level of antibody production; survival rate following PR8 infection compared to NP I/II peptides alone (PR8 virus): higher survival rate; survival rate of tumor bearing mice ([2]; 100 μg OVA + 50 μg adjuvant): highest survival rate; abnormality on activity and diet behavior (Female BALB/c mice; 100 μg to 1000 μg, 7 days): no obvious abnormality; survival in acute toxicity test (Female BALB/c mice; 100 μg to 1000 μg, 7 days): all of the mice were survive; number of surviving animal per group of 5 mice (Female BALB/c mice; Dose 100 μg, 7 days): 5/5; number of surviving animal per group of 5 mice (Female BALB/c mice; Dose 200 μg, 7 days): 5/5; number of surviving animal per group of 5 mice (Female BALB/c mice; Dose 500 μg, 7 days): 5/5; number of surviving animal per group of 5 mice (Female BALB/c mice; Dose 1000 μg, 7 days): 5/5; hepato somatic index compared to control group (Female BALB/c mice; all experimental groups, n=5): no change; spleen somatic index compared to control group (Female BALB/c mice; all experimental groups, n=5): no change; percentage of median weight change of mice (Female BALB/c mice; increased dose of saponin adjuvant, 5 days, n=5): less than 5%
